Tested on: skin blemishes
Test: clinical trial: blue light, white light or 4% BPO composition, number of skin blemishes
Type: in vivo
Details: subjects (n=55 in trial)
Source text: In another clinical trial, subjects (n=55) were exposed to (a) blue light], (b) white light, or (c) a composition comprising 4% (w/w) benzyol peroxide (BPO). Subjects were re-evaluated weekly during each treatment regime and results are illustrated in FIG. 25. The number of skin blemishes observed on subjects who received blue light therapy dropped by over 35% in the first week and by 55% in the second week. By comparison, the number of skin blemishes observe on subjects who received BPO dropped by just over 20% by the second week and by only 45% after eleven weeks.

O=C(OOC(=O)c1ccccc1)c1ccccc1 [BPO, benzyol peroxide] was tested, and the “number of skin blemishes dropped” value (after eleven weeks) was 45% and the “number of skin blemishes dropped” value (by the second week) was “over 20%”.

Source: US20100196343A1, “COMPOSITIONS, METHODS, DEVICES, AND SYSTEMS FOR SKIN CARE” (priority 2008, published 2010)
